Results from publication PMC6491884, “Synthesis and Biological Evaluation of 4β-N-Acetylamino Substituted Podophyllotoxin Derivatives as Novel Anticancer Agents” (Frontiers in Chemistry, 2019).
Where two headings read alike, the source gives them in different places.

What was measured:
[1] = test system: HaCaT (human immortalized epidermal cells); experiment: MTT growth inhibition assay, HaCaT normal cells; assay type: cell-based; conditions: 48 h
Protocol: (§1) Target compounds 12a–t were evaluated for in vitro cytotoxicity against four human tumor cell lines, including H460 (non-small cell lung carcinoma), HeLA (human cervical carcinoma), EC9706 (human esophageal squamous cell carcinoma), and T24 (human bladder carcinoma), using HaCaT (human immortalized epidermal cells) as a human non-malignant cell line. Etoposide (3) was included as a positive control. The screening procedure was based on the 3-(4, 5-dimethylthiazol-2-yl)-2, 5-diphenyltetrazoliun bromide (MTT) growth inhibition assay with triplicate experiments, and the results are summarized in Table 1.
(§2) The four human cancer cell lines and a normal human epidermal cell line of the screening panel, including H460 (human non-small cell lung carcinoma), HeLA (human cervical carcinoma), EC9706 (human esophageal squamous cell carcinoma), T24 (human bladder carcinoma), and HaCaT (human immortalized epidermal cells), were purchased from American Type Culture Collection (ATCC, Manassas, VA, U.S.A.). H460, EC9706, and T24 were maintained in RPMI 1640 medium containing 10% Fetal Bovine Serum, 100 units/ml penicillin, 100 μg/ml streptomycin under humidified incubator with 5% CO2 atmosphere at 37°C. HeLA and HaCaT were maintained in Dulbecco′s […] (DMEM) supplemented with 10% Fetal Bovine Serum 100 units/ml penicillin, 100 μg/ml streptomycin in a humidified incubator and 5% CO2 atmosphere at 37°C. Logarithmically growing cells were used for the following experiments.
(§3) The cytotoxicity of the synthesized compounds 12a–t against a panel of human cell lines was determined by the 3-(4,5-dimethylthiazol-2-yl)-2,5-diphenyltetrazoliun bromide (MTT) growth inhibition assay. The five human cell lines were, respectively, plated in 96-well-culture plates at the density of 1 × 10^5 cells per well and incubated for 24 h. Cells were exposed to different concentrations of synthetic podophyllotoxin derivatives for 48 h. MTT was added with a dose of 5 mg/mL in phosphate-buffered saline. After incubation for 4 h at 37°C, the purple formazan crystals were dissolved with […] dimethyl sulfoxide and the absorbance was measured at 570 nm in an ELISA reader. Antiproliferative activity was expressed using the IC50 value defined as the concentration of synthetic podophyllotoxin derivatives inhibiting cell proliferation by 50%. The cell viability ratio was calculated by the following formula: cell viability ratio (%) = OD treated /OD control × 100% (Ma et al., [2014]).

[2] = test system: T24 (human bladder carcinoma); experiment: MTT growth inhibition assay, T24; assay type: cell-based; conditions: T24, 48 h
Protocol: as §1, §2, §3

[3] = test system: HeLA (human cervical carcinoma); experiment: MTT growth inhibition assay, HeLA; assay type: cell-based; conditions: 48 h
Protocol: as §1, §2, §3

[4] = test system: EC9706 (human esophageal squamous cell carcinoma); experiment: MTT growth inhibition assay, EC9706; assay type: cell-based
Protocol: as §1, §2, §3

[5] = test system: H460 (human non-small cell lung carcinoma); experiment: MTT growth inhibition assay, H460; assay type: cell-based
Protocol: as §1, §2, §3

[6] = test system: four human cancer cell lines (EC-9706, HeLA, T-24 and H460) and a normal human epidermal cell line (HaCaT); experiment: MTT growth inhibition assay, whole cell line panel; assay type: cell-based; conditions: read-out: IC50 values across the cell lines
Protocol: as §1, with “1. […]” for “1.”
The cytotoxicity of the synthesized compounds 12a–t against a panel of human cell lines was determined by the 3-(4,5-dimethylthiazol-2-yl)-2,5-diphenyltetrazoliun bromide (MTT) growth inhibition assay. […] After incubation for 4 h at 37°C, the purple formazan crystals were dissolved with […] dimethyl sulfoxide and the absorbance was measured at 570 nm in an ELISA reader. […] The cell viability ratio was calculated by the following formula: cell viability ratio (%) = OD treated /OD control × 100% (Ma et al., [2014]).

[7] = read-out: IC50 (μM) HaCaT, MTT, 48 h, n = 3, normal cell line
[8] = read-out: IC50 (μM) T24, MTT, 48 h, n = 3
[9] = Homo sapiens, read-out: IC50 (μM) HeLA, MTT, 48 h, n = 3
[10] = EC9706, 48 h, read-out: IC50 (μM) EC9706
[11] = NCI-H460, 48 h, read-out: IC50 (μM) H460

| IC50 ([2]; MTT, 48 h, n = 3, read-out: IC50 (μM) T24) | IC50 ([3]; Homo sapiens, MTT, n = 3, read-out: IC50 (μM) HeLA) | IC50 ([4]; EC9706, MTT, 48 h, n = 3, read-out: IC50 (μM) EC9706) | IC50 ([5]; NCI-H460, MTT, 48 h, n = 3, read-out: IC50 (μM) H460) | Structure (SMILES) | IC50 [1, 7] | IC50 [2, 8] | melting point | IC50 [3, 9] | IC50 [4, 10] | IC50 [5, 11] | IC50 [6] | IC50 ([3]; read-out: IC50 (μM) HeLA, MTT, n = 3) | IC50 ([1]; MTT, n = 3, normal cell line, read-out: IC50 (μM) HaCaT) | IC50 ([6]; MTT, span over the cell line panel) |
| --- | --- | --- | --- | --- | --- | --- | --- | --- | --- | --- | --- | --- | --- | --- |
|  |  |  |  | COc1cc([C@@H]2c3cc4c(cc3[C@@H](NC(=O)CN3CCCC3)[C@H]3COC(=O)[C@H]23)OCO4)cc(OC)c1O [Compound 12a] | 18.2 ± 1.28 µM | > 50 µM | 113 to 116 °C | 12.7 ± 1.38 µM | > 50 µM | 9.61 ± 0.22 µM |  |  |  |  |
|  |  |  |  | COc1cc([C@@H]2c3cc4c(cc3[C@@H](NC(=O)CN3CCCCC3)[C@H]3COC(=O)[C@H]23)OCO4)cc(OC)c1O [Compound 12b] | 5.17 ± 0.36 µM | > 50 µM | 107 to 110 °C | 5.72 ± 0.74 µM | > 50 µM | 5.91 ± 0.65 µM |  |  |  |  |
|  |  |  |  | COc1cc([C@@H]2c3cc4c(cc3[C@@H](NC(=O)CN3CCCCC3)[C@H]3COC(=O)[C@H]23)OCO4)cc(OC)c1OC [Compound 12c] | 1.89 ± 0.27 µM | > 50 µM | 229 to 231 °C | > 50 µM | > 50 µM | > 50 µM |  |  |  |  |
|  |  |  |  | COc1cc([C@@H]2c3cc4c(cc3[C@@H](NC(=O)CN3CCOCC3)[C@H]3COC(=O)[C@H]23)OCO4)cc(OC)c1O [Compound 12d, 4β-N-[2′′-(morpholino)-acetamide]-4′-demethylpodophyllotoxin] | > 50 µM | > 50 µM | 109 to 111 °C | > 50 µM | > 50 µM | > 50 µM |  |  |  |  |
|  |  |  |  | COc1cc([C@@H]2c3cc4c(cc3[C@@H](NC(=O)CN3CCOCC3)[C@H]3COC(=O)[C@H]23)OCO4)cc(OC)c1OC [Compound 12e, 4β-N-[(2′′-morpholino)-acetamide]-podophyllotoxin] | > 50 µM | > 50 µM | 119 to 121 °C | > 50 µM | > 50 µM | > 50 µM |  |  |  |  |
|  |  |  |  | CCCNCC(=O)N[C@@H]1c2cc3c(cc2[C@@H](c2cc(OC)c(O)c(OC)c2)[C@H]2C(=O)OC[C@@H]21)OCO3 [Compound 12f] | 2.59 ± 0.13 µM | 18.6 ± 1.57 µM | 199 to 202 °C | 23.9 ± 1.04 µM | 11.7 ± 0.26 µM | 2.54 ± 0.34 µM |  |  |  |  |
|  |  |  |  | CCCCNCC(=O)N[C@@H]1c2cc3c(cc2[C@@H](c2cc(OC)c(O)c(OC)c2)[C@H]2C(=O)OC[C@@H]21)OCO3 [Compound 12h] | 1.54 ± 0.29 µM | 12.1 ± 1.28 µM | 115 to 118 °C | 1.21 ± 0.31 µM | 22.8 ± 0.32 µM | 1.57 ± 0.37 µM | 1.2 to 22.8 µM |  |  |  |
|  |  |  |  | CCCCNCC(=O)N[C@@H]1c2cc3c(cc2[C@@H](c2cc(OC)c(OC)c(OC)c2)[C@H]2C(=O)OC[C@@H]21)OCO3 [Compound 12i] | > 50 µM | > 50 µM | 92 to 95 °C | > 50 µM | > 50 µM | 37.8 ± 1.01 µM |  |  |  |  |
|  |  |  |  | CCN(CC)CC(=O)N[C@@H]1c2cc3c(cc2[C@@H](c2cc(OC)c(O)c(OC)c2)[C@H]2C(=O)OC[C@@H]21)OCO3 [Compound 12k] | > 50 µM | > 50 µM | 106 to 108 °C | 45.8 ± 0.71 µM | > 50 µM | > 50 µM |  |  |  |  |
|  |  |  |  | COc1cc([C@@H]2c3cc4c(cc3[C@@H](NC(=O)CN(CCO)CCO)[C@H]3COC(=O)[C@H]23)OCO4)cc(OC)c1O [Compound 12l] | 4.21 ± 0.17 µM | > 50 µM | 212 to 214 °C | > 50 µM | > 50 µM | > 50 µM |  |  |  |  |
|  |  |  |  | COc1cc([C@@H]2c3cc4c(cc3[C@@H](NC(=O)CN(CCO)CCO)[C@H]3COC(=O)[C@H]23)OCO4)cc(OC)c1OC [Compound 12m] | > 50 µM | > 50 µM | 105 to 107 °C | 36.4 ± 0.49 µM | > 50 µM | > 50 µM |  |  |  |  |
|  |  |  |  | COc1cc([C@@H]2c3cc4c(cc3[C@@H](NC(=O)CNCc3ccccc3)[C@H]3COC(=O)[C@H]23)OCO4)cc(OC)c1O [Compound 12n] | 13.3 ± 0.8 µM | > 50 µM | 141 to 143 °C | 6.26 µM | 40.1 ± 2.43 µM | 16.5 ± 0.39 µM |  | 6.25 ± 0.21 µM |  |  |
|  |  |  |  | COc1cc([C@@H]2c3cc4c(cc3[C@@H](NC(=O)CNCc3ccccc3)[C@H]3COC(=O)[C@H]23)OCO4)cc(OC)c1OC [Compound 12o] | 2.14 ± 0.33 µM | > 50 µM | 111 to 113 °C | 8.55 ± 0.28 µM | 11.3 ± 0.22 µM | 26.9 ± 0.92 µM |  |  |  |  |
|  |  |  |  | COc1cc([C@@H]2c3cc4c(cc3[C@@H](NC(=O)CNc3ccc(F)cc3)[C@H]3COC(=O)[C@H]23)OCO4)cc(OC)c1O [Compound 12p] | > 50 µM | > 50 µM | 159 to 162 °C | > 50 µM | > 50 µM | 9.75 ± 0.26 µM |  |  |  |  |
|  |  |  |  | COc1ccc(CCNCC(=O)N[C@@H]2c3cc4c(cc3[C@@H](c3cc(OC)c(O)c(OC)c3)[C@H]3C(=O)OC[C@@H]32)OCO4)cc1OC [Compound 12q] | 3.69 ± 0.19 µM | > 50 µM | 229 to 231 °C | 4.57 ± 0.3 µM | 20.7 ± 0.72 µM | 3.43 ± 0.17 µM |  |  |  |  |
|  |  |  |  | COc1ccc(CCNCC(=O)N[C@@H]2c3cc4c(cc3[C@@H](c3cc(OC)c(OC)c(OC)c3)[C@H]3C(=O)OC[C@@H]32)OCO4)cc1OC [Compound 12r] | > 50 µM | > 50 µM | 106 to 108 °C | > 50 µM | > 50 µM | > 50 µM |  |  |  |  |
|  |  |  |  | COc1cc([C@@H]2c3cc4c(cc3[C@@H](NC(=O)CNCCc3ccc(O)cc3)[C@H]3COC(=O)[C@H]23)OCO4)cc(OC)c1O [Compound 12s] | 8.67 ± 0.72 µM | 12.7 ± 0.73 µM | 234 to 236 °C | 2.27 ± 0.26 µM | 14.3 ± 0.69 µM | 5.94 ± 0.18 µM |  |  |  |  |
|  |  |  |  | COc1cc([C@@H]2c3cc4c(cc3[C@@H](NC(=O)CNCCc3ccc(O)cc3)[C@H]3COC(=O)[C@H]23)OCO4)cc(OC)c1OC [Compound 12t] | > 50 µM | > 50 µM | 116 to 119 °C | > 50 µM | > 50 µM | 42.1 ± 1.21 µM |  |  |  |  |
| 8.43 ± 0.33 µM | 3.12 ± 0.35 µM | > 50 µM | 43.2 ± 1.45 µM | COc1cc([C@@H]2c3cc4c(cc3[C@@H](O[C@@H]3O[C@@H]5CO[C@@H](C)O[C@H]5[C@H](O)[C@H]3O)[C@H]3COC(=O)[C@H]23)OCO4)cc(OC)c1O [Etoposide, etoposide, reference compound] |  |  |  |  |  |  |  |  | 48.7 ± 1.69 µM | 8.4 to 78.2 µM |
